Data from article PMC9545868, “Structure‐Based Demystification of Radical Catalysis by a Coenzyme B12 Dependent Enzyme—Crystallographic Study of Glutamate Mutase with Cofactor Homologues” (Angewandte Chemie (International Ed. in English), 2022).

Target: T1, glutamate mutase (GM) (Clostridium cochlearium, UniProt P80077+P80078)
T1 construct: gene glmE; hetero-tetramer of two epsilon and two sigma subunits; construct details only in the supplement
T1 sequence (P80077 1-483): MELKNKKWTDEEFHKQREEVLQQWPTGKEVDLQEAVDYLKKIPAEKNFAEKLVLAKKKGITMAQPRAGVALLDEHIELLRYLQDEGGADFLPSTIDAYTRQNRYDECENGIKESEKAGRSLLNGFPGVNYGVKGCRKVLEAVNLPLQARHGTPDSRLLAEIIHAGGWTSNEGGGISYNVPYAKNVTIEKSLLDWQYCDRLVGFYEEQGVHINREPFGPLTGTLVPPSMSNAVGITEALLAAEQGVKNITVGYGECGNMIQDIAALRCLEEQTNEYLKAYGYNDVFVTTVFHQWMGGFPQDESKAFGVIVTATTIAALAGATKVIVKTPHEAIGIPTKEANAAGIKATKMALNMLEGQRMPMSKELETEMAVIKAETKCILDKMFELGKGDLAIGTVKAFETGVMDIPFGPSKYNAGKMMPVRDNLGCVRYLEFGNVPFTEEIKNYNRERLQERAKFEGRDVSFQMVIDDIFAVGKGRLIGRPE
T1 sequence (P80078 1-137): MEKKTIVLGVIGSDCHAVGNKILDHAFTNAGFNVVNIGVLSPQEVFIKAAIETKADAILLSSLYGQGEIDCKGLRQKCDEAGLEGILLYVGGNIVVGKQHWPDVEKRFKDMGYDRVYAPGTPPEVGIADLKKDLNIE
Experiment: X-ray crystal structures, […] and […] Å
Assay type: binding
Details: pseudo-substrate in the substrate site of the epsilon subunit (arginine claw R66, R100, R149); with AdoMeCbl or AdoEtCbl bound

O=C(O)[C@@H](O)[C@H](O)C(=O)O [(S,S)‐tartrate]
X-ray crystal structures, 1.8 and 2.1 Å: strong polar binding interactions with the carboxylate groups of an (S,S)‐tartrate ion
